# Source: patent publication US8299114B2, “Bicyclic derivatives of azabicyclic carboxamides, preparation thereof and therapeutic use thereof” (priority 2008, dated 2012)
# How the values were obtained:
# TRPV1 receptor = molecular target: T1, TRPV1 receptor (Rattus norvegicus, UniProt O35433); test: Inhibition of the current induced with capsaicin on rat DRGs (whole-cell patch-clamp); assay type: cell-based; settings: inhibition of control capsaicin response, newborn rat DRG neurones
# T1 construct: DRG neurones naturally express the TRPV1 receptor; endogenous in cells; host or cells: primary culture of newborn rat dorsal root ganglion neurones
# Procedure: Test of Inhibition of the Current Induced with Capsaicin on Rat DRGs
# • Primary culture of rat dorsal root ganglion (DRG) cells:
# DRG neurones naturally express the TRPV1 receptor.
# The primary cultures of newborn rat DRGs are prepared using 1-day-old rats. Briefly, after dissection, the ganglions are trypsinized and the cells dissociated by mechanical trituration. The cells are resuspended in an Eagle basal culture medium containing 10% foetal calf serum, 25 mM KCl, 2 mM glutamine, 100 μg/ml gentamicin and 50 ng/ml of NGF, and then deposited on glass slides coated with laminin (0.25×10^6 cells per slide), which are then placed in Corning 12-well dishes. The cells are incubated at 37° C. in a humidified atmosphere containing 5% CO2 and 95% air. […]
# The measuring chambers (volume 800 μl) containing the cell preparation are placed on the platform of an inverted microscope (Olympus IMT2) equipped with Hoffman optics (Modulation Contrast, New York) and observed at a magnification of 400×. […] The overall currents (membrane potential set at −60 mV) are recorded with an Axopatch 1D amplifier (Axon Instruments, Foster City, Calif.), connected to a PC running the Pclamp8 software (Axon Instrument). The current plots are recorded on paper and simultaneously digitized (sampling frequency 15 to 25 Hz) and acquired on the hard drive of the PC. […]
# TRPV1 receptors = molecular target: T2, TRPV1 receptors (Mus musculus, UniProt Q704Y3); test: Pain induced by intraplantar administration of capsaicin to mice; assay type: in vivo; settings: 10 mg/kg orally 120 minutes before intraplantar capsaicin, n=10, timed over 2 minutes
# T2 construct: from tissue; host or cells: live mice, hind leg (in vivo)
# T2 sequence (Q704Y3 whole entry): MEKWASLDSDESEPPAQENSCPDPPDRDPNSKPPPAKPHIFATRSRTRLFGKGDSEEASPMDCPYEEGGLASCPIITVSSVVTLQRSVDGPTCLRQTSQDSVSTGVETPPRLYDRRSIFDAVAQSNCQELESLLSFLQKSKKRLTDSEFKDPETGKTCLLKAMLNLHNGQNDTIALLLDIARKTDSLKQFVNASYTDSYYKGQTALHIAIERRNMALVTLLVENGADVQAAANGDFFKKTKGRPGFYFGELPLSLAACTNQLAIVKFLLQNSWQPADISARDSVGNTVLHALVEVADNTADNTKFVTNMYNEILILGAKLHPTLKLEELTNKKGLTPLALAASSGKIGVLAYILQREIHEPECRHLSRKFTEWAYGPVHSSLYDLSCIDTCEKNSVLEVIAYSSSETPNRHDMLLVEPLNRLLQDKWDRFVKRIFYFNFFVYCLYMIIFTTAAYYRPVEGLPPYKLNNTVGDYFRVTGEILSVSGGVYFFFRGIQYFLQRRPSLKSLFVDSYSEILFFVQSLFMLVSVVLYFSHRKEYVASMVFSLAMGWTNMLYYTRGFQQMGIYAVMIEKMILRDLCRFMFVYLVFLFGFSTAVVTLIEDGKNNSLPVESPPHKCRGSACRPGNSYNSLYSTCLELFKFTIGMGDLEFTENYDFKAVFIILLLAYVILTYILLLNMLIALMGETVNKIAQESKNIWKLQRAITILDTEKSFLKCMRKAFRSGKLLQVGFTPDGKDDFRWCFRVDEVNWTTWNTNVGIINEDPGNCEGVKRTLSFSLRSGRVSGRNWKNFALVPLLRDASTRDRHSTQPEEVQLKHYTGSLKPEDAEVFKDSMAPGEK
# Procedure: Pain Induced by Intraplantar Administration of Capsaicin to Mice. The intraplantar injection of capsaicin to mice rapidly produces short-lived nociceptive behaviour, which is reflected by licking, biting and flexing of the administered leg. […] Methodology: (E)-Capsaicin is initially diluted to 3 mg/ml in DMSO, and then diluted again for its final use to 1.5 μg/20 μl in physiological saline. […] The capsaicin is injected into the hind legs of the animal, on the upper face. The test compounds are administered orally 120 minutes before the injection of capsaicin. Two hours after administration of the compounds, the mice are placed in a glass beaker. The nociceptive behaviour of the animals is then assessed immediately by the experimenter, and the duration of the capsaicin-induced behavioural manifestations is timed over a period of 2 minutes (licking and biting, total or partial flexure of the injected leg). For each compound, an inhibition corresponding to the mean of the capsaicin-induced nociceptive responses, in response to a dose of test product (expressed in mg/kg) administered orally to a sample of a given number (n) of mice, is determined.
# T1 sequence (O35433 whole entry): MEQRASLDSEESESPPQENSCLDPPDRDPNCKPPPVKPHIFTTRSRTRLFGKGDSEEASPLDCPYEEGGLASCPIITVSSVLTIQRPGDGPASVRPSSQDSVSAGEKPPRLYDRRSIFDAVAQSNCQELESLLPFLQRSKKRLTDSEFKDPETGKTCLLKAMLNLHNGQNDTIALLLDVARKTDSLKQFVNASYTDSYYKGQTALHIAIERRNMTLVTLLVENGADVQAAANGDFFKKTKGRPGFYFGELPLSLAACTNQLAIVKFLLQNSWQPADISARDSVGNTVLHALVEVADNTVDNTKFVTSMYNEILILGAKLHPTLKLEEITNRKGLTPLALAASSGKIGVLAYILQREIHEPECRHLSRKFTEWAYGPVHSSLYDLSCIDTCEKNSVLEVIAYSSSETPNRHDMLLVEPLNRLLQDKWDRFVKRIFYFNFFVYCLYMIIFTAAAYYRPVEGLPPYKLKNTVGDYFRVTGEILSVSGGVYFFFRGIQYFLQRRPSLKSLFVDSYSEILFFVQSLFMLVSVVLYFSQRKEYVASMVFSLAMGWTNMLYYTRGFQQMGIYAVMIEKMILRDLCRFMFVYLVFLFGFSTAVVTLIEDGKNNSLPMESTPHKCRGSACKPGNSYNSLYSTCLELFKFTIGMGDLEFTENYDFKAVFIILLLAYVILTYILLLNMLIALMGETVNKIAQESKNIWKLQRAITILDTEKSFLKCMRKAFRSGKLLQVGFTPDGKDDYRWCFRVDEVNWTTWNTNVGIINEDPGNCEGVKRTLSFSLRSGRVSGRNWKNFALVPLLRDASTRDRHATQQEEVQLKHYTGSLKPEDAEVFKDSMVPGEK
inhibition at 0.0001 µM (TRPV1 receptor; 0.1 nM compound) [%],% inhibition of the capsaicin-induced nociceptive responses (TRPV1 receptors),SMILES,inhibition at 0.1 µM (TRPV1 receptor; 100 nM compound) [%],melting point [°C]
–,–,"Cc1nc2cc(NC(=O)c3cc4cc(F)ccc4n3Cc3cccc(F)c3)cnc2[nH]1 [Compound 11, N-(2-Methyl-3H-imidazo[4,5-b]pyrid-6-yl)-5-fluoro-1-[(3-fluorophenyl)methyl]-1H-indole-2-carboxamide]",62,299 to 300
65.5,37% (±8%),"O=C(Nc1cnc2sc(CO)nc2c1)c1cc2cc(F)ccc2n1Cc1cccc(F)c1 [Compound 4, N-(2-Hydroxymethylthiazolo[5,4-b]pyrid-6-yl)-5-fluoro-1-[(3-fluorophenyl)methyl]-1H-indole-2-carboxamide]",–,–
